Test results as given in publication PMC7481357, “N-terminal Myristoylation Enhanced the Antimicrobial Activity of Antimicrobial Peptide PMAP-36PW” (Frontiers in Cellular and Infection Microbiology, 2020).
Residues, ends and D or L forms follow the SMILES beside them. *: point of attachment. Myristoyl = CCCCCCCCCCCCCC(=O)*

Legend:
S. aureus ATCC 25923 [1] = experiment: Subcutaneous abscess model; assay type: in vivo, BALB/c mice; conditions: injected 20 μL, 1 μg/μL, once a day for 3 days; for Bacterial CFU in abscess area: n = 5
Experimental: A subcutaneous abscess model in vivo was established as previously reported (Zhao et al., [2019]). The mouse dorsal region with 3.0 cm diameter was treated with hair pusher. A total of 120 mice were randomly divided into two experimental models, one was challenged with S. aureus ATCC 25923 (2.5 × 10^8 CFU/mL, 60 μL), and the other was challenged with P. aeruginosa GIM 1.551 (3.0 × 10^8 CFU/mL, 60 μL). In the S. aureus ATCC 25923 model, 60 mice were divided into six groups of 10 members. The mice with no infection and treatment was used as a blank control, those directly injected with PBS (20 μL) as the negative control group, those injected with benzylpenicillin potassium (20 μL, 1 μg/μL) as the positive control group, and the remaining three groups as the treatment groups injected with Myr-36PW (20 μL, 1 μg/μL), PMAP-36PW (20 μL, 1 μg/μL), and PMAP-36 (20 μL, 1 μg/μL). The procedure in P. aeruginosa GIM 1.551 model is the same as that in S. aureus ATCC 25923 model, except for the use of ampicillin sodium as a positive control. Treatment once a day for 3 days was initiated when the mice developed prominent pustules on their backs. A day after the treatment, the size of the abscess was observed, and its tissues were excised, homogenized, and serially diluted. Bacteria CFU counts were calculated.
Figure 10 Treatment efficacy of subcutaneous abscess by Myr-36PW in vivo. Mice were injected with S. aureus ATCC 25923 or P. aeruginosa GIM 1.551 to develop a subcutaneous abscess before treatment. (A) Changes in the abscess area of mice after 3 days treatment. (B,C) Quantitative analysis of bacterial CFU in abscess area that received 3 days treatment under various experimental conditions. The number of CFU in each treatment group was normalized by using the CFU of the experimental group divided by the CFU of the PBS group (100%). BP is benzylpenicillin potassium, AS is ampicillin sodium. Data represent the mean ± SD of five individual experiments. *P < 0.05 and **P < 0.01, compared with PBS. ^#P < 0.05 and ^##P < 0.01, compared with PMAP-36PW.

P. aeruginosa GIM 1.551 [2] = assay type: cell-based, Pseudomonas aeruginosa
Experimental: (§1) The MICs of Myr-36PW in vitro were measured through microdilution in accordance with the Clinical and Laboratory Standards Institute (CLSI, [2020]). The bacterial cells were cultured for 12 h at 37°C in the appropriate medium and then diluted to 1 × 10^6 CFU/mL. Equal volumes (100 μL) of bacterial cell suspension and two-fold serially diluted different concentrations peptides (0.0039–256 μg/mL) were added to each well of the sterile 96-well plate. The samples were incubated for 18 h at 37°C. After incubation, the MICs of the peptides were determined by evaluating the growth based on the OD600 of the cultures.

[3] = system: L. monocytogenes CICC 21634; assay type: cell-based, Listeria monocytogenes
Experimental: as §1

P. aeruginosa GIM 1.551 [4] = assay type: cell-based, Pseudomonas aeruginosa; conditions: GIM 1.551, 1 h
Experimental: The effects of abiotic factors on the antibacterial activity of Myr-36PW were investigated by MIC assay (Xi et al., [2013]; Zhong et al., [2019]). S. aureus ATCC 25923 and P. aeruginosa GIM 1.551 overnight cultures were diluted to 1 × 10^6 CFU/mL, and the MICs of peptides in MHB with different concentration of physiological salts (150 mM NaCL, 2 mM CaCL2) were determined. And after the peptides incubated in 10% mice serum for 1 h at 37°C, MICs of peptides against S. aureus ATCC 25923 and P. aeruginosa GIM 1.551 were determined. The MICs in MHB in the absence of physiological salts and serum were used as the control group.
Salt and serum stability in vitro were indicated by MIC assay. The concentrations of NaCl and CaCl2 were physiological concentration. 10% mice serum was inactivated by heat treatment for 15 min at 60 ℃。The control group was measured in the absence of physiological salts or serum in MHB.

S. aureus ATCC 25923 [5] = experiment: Inhibition zone assay (disk diffusion); assay type: cell-based, Staphylococcus aureus; parameters: key: +, means the peptide has antibacterial activity; conditions: disk 10 μg peptide, 18 h at 37°C, * P < 0.05, ** P < 0.01 vs PMAP-36PW
Experimental: The inhibition zone assay was performed through the disk diffusion to evaluate the antimicrobial activity of Myr-36PW in vitro (Dunne et al., [2017]). The four above-mentioned bacterial strains were used as experimental strains, with L. monocytogenes CICC 21634 cultured in BHI medium, and P. aeruginosa GIM 1.551 cultured in TSB medium. The bacterial cells were cultured for 12 h at 37°C in the appropriate medium, and the bacterial cell suspension was spread on LB agar. The disks containing 10 μg of peptides (1 μg/μL) were attached to the solid medium and incubated at 37°C for 18 h. Finally the diameter of the inhibition zone was measured.

[6] = system: S. aureus ATCC 25923 and P. aeruginosa GIM 1.551; experiment: pH stability testing (pH 2-13, then inhibition zone assay); assay type: cell-based, Staphylococcus aureus; Pseudomonas aeruginosa; conditions: for pH range of stable antimicrobial activity: peptides treated at pH 2–13, inhibition zone, 10 μg, n = 5
Experimental: For stability test, the Myr-36PW and peptides were treated with pH 2–13, and PBS buffer with different pH values was used as a control (Wang et al., [2019]). Inhibition zone assay was performed against S. aureus ATCC 25923 and P. aeruginosa GIM 1.551. The inhibition zone diameters of peptides (10 μg, 1 μg/μL) were measured after incubation for 18 h at 37°C, and the inhibition curve was drawn.
Figure 4 PH stability determination of Myr-36PW. PH stability test was performed using Myr-36PW and its analogs treated with different pH levels (2–13) through disk diffusion method. (A) (S. aureus ATCC 25923) and (B) (P. aeruginosa GIM 1.551) show the pH stability curve of PMAP-36, PMAP-36PW, and Myr-36PW. The diameter of the standard disk is 6 mm. Data represent the mean ± SD (n = 5).

Row | Compound | Abscess area (S. aureus ATCC 25923 [1]) | Bacterial CFU in abscess area (S. aureus ATCC 25923 [1]) | MICs of different classes of antibiotics (P. aeruginosa GIM 1.551 [2]; P. aeruginosa GIM 1.551, * indicates resistant (CLSI, 2020)) [µg/mL] | MICs of different classes of antibiotics ([3]; L. monocytogenes CICC 21634, * indicates resistant (CLSI, 2020)) [µg/mL] | MICs, CaCl2 (P. aeruginosa GIM 1.551 [4]) [µg/mL] | MICs, Control (P. aeruginosa GIM 1.551 [4]) [µg/mL] | MICs, NaCl (P. aeruginosa GIM 1.551 [4]) [µg/mL] | MICs, Serum (P. aeruginosa GIM 1.551 [4]) [µg/mL] | MICs (P. aeruginosa GIM 1.551 [2]; GIM 1.551, 18 h) [µg/mL] | In vitro antibacterial activity (disk diffusion) (S. aureus ATCC 25923 [5]) | pH range of stable antimicrobial activity ([6]; against P. aeruginosa GIM 1.551) | pH range of stable antimicrobial activity ([6]; against S. aureus ATCC 25923) | Antimicrobial activity at pH 2 ([6]; inhibition zone, 10 μg peptide) | Antimicrobial activity at pH 13 ([6]; inhibition zone, 10 μg peptide) | MICs ([3]; CICC 21634, 18 h) [µg/mL]
1 | CC1(C)S[C@@H]2[C@H](NC(=O)Cc3ccccc3)C(=O)N2[C@H]1C(=O)O [Benzylpenicillin potassium] | significantly reduced the abscess area and effectively suppressed its growth | lower than that in PBS group (P < 0.01) | 64 | 64 |  |  |  |  |  |  |  |  |  |  | 
2 | CCCCCCCCCCCCCC(=O)NCC(=O)NCC(=O)N[C@@H](CCCNC(=N)N)C(=O)N[C@@H](Cc1ccccc1)C(=O)N[C@@H](CCCNC(=N)N)C(=O)N[C@@H](CCCNC(=N)N)C(=O)N[C@@H](CC(C)C)C(=O)N[C@@H](CCCNC(=N)N)C(=O)N[C@@H](CCCCN)C(=O)N[C@@H](CCCCN)C(=O)N[C@H](C(=O)N[C@@H](CCCNC(=N)N)C(=O)N[C@@H](CCCCN)C(=O)N[C@@H](CCCNC(=N)N)C(=O)N[C@@H](CC(C)C)C(=O)N[C@@H](CCCCN)C(=O)N[C@@H](CCCCN)C(=O)N[C@H](C(=O)NCC(=O)N[C@@H](CCCCN)C(=O)N[C@H](C(=O)N[C@@H](CC(C)C)C(=O)N[C@@H](CCCCN)C(=O)N[C@@H](Cc1c[nH]c2ccccc12)C(=O)N[C@H](C(=O)N[C@@H](Cc1c[nH]c2ccccc12)C(=O)N[C@@H](Cc1c[nH]c2ccccc12)C(=O)N[C@H](C(=O)N[C@H](C(=O)NCC(=O)N[C@@H](CO)C(=O)N[C@H](C(=O)N1CCC[C@H]1C(=O)N[C@@H](CC(C)C)C(=O)NCC(=O)N[C@@H](CS)C(=O)NCC(=O)O)[C@@H](C)CC)C(C)C)[C@@H](C)CC)[C@@H](C)CC)C(C)C)[C@@H](C)CC)[C@@H](C)O [Myr-36PW] (Myristoyl-GGRFRRLRKKTRKRLKKIGKVLKWIWWIVGSIPLGCG-OH; C-terminus assumed) | significantly reduced the abscess area and effectively suppressed its growth | lower than that in PBS group (P < 0.01) |  |  | 0.5 | 0.25 | 0.25 | 0.5 | 0.25 | +** | 5–11 pH | 5–9 pH | higher than that of PMAP-36PW | disappeared | 0.5
